Columns and labels:
[1] = Liver microsome metabolism stability test, rat; format: in vitro ADME; conditions: rat liver microsomes 0.5 mg/mL, 1 μM compound, 37° C.
Method: (§1) Two separate experiments were conducted. a) NADPH: 10 μL of 20 mg/mL liver microsomes and 40 μL of 10 mM NADPH were added to a culture medium. The final concentrations of microsomes and NADPH were 0.5 mg/mL and 1 mM, respectively. b) NADPH free: 10 μL of 20 mg/mL liver microsomes and 40 μL of ultrapure H2O were added to a culture medium. The final concentration of microsomes was 0.5 mg/mL.
(§2) At the beginning of the reaction, 4 μL of 100 μM test compound solution or a control compound solution with a final concentration of 1 μM were added, and proceed at 37° C.
(§3) 50 μL aliquots were taken from the reaction solution at 0, 7, 15, 30, and 60 minutes. The reaction was stopped by adding 4 volumes of cold acetonitrile and IS (100 nM alprazolam, 200 nM labetalol, 200 nM caffeine, and 2 μM ketoprofen). The samples were centrifuged at 3220 grams for 40 minutes. 100 μL supernatant divided equally was mixed with 100 μL of ultrapure H2O, and use for LC-MS/MS analysis.

[2] = Liver microsome metabolism stability test, human; format: in vitro ADME; conditions: human liver microsomes 0.5 mg/mL, 1 μM compound, 37° C.
Method: as §1, §2, §3

hTRPV3 = molecular target: T1, hTRPV3 (Homo sapiens, UniProt Q8NET8); assay: Whole cell patch clamp of TRPV3 current in HEK-293 cells instantaneously expressing TRPV3; format: cell-based; conditions: for inhibition at 0.3 µM: HEK293, single concentration 0.3 μM, patch clamp, read-out: Inhibition rate on hTRPV3
T1 construct: expressed in transfected cells; host or cells: HEK-293
T1 sequence (Q8NET8 1-790): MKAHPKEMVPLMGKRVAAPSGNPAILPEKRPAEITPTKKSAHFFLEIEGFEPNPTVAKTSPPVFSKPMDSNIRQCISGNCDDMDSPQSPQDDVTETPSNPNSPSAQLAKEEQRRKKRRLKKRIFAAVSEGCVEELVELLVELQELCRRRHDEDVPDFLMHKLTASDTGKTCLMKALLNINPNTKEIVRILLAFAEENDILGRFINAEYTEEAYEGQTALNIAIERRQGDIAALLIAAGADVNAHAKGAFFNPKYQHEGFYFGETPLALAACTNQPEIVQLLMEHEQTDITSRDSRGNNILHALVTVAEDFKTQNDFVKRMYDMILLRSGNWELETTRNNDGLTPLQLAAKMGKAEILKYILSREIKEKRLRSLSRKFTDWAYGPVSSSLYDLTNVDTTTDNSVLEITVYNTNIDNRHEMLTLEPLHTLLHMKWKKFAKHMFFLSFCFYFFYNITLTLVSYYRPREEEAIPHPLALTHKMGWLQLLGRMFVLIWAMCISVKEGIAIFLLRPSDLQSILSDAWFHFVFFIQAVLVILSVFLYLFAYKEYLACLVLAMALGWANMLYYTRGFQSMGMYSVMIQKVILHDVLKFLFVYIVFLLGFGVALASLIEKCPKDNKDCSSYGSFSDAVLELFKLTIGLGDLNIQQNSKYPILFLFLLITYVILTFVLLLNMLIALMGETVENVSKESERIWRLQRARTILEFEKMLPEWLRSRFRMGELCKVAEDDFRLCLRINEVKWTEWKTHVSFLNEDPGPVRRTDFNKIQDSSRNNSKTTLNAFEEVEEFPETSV
Method: In this study, HEK-293 cells instantaneously expressing TRPV3 were used for experimental detection.
The operation steps are as follows:
The cells were cultured in DMEM medium containing 10% fetal bovine serum at a temperature of 37° C. and a carbon dioxide concentration of 5%.
Day 1: Cells were inoculated into a 6-well plate with 5×10^5 cells per well.
Day 2: Transfection was performed using Lipofectamine 3000 transfection reagent, with a plasmid to transfection reagent ratio of 1 μg: 2 μL. The total amount of plasmid used per well was 3 μg. Specifically, two sterile centrifuge tubes were taken and 100 μL Opti-MEM was added to each tube. 6 μL Lipofectamine 3000 was added to one tube and mixed well; and 3 μg plasmid was added to another tube and mixed well, and then 6 μL P3000 was added and mixed well; after that, the diluted plasmid DNA was addeds to diluted Lipofectamine 3000 and incubated at room temperature for 10-15 min. DNA liposome complex was dropped into the cells, shaked gently and mixed well, and then cultured in an incubator. The liquid was changed after 4 to 6 h.
Day 3: The cells were digested and seeded into 24 well plates with pre-placed cover slides, with 8×10^3 cells per well.
Day 4: Patch clamp testing was performed.
The voltage stimulation protocol for recording TRPV3 current using whole cell patch clamp is as follows: after forming a whole cell seal, a cell membrane voltage clamp was set at −80 mV. Firstly, a membrane potential was recorded at 0 mV, and then a voltage was command to start from −100 mV, to depolarize in the form of Ramp to 100 mV within 100 ms, and finally restore to 0 mV. Data collection was repeated every 5 seconds to observe the inhibitory effect of pharmaceutical on peak current. Experimental data was collected by EPC 10 amplifier (HEKA) and stored in PatchMaster (HEKA) software.
A microelectrode puller was used to pull the capillary glass tube into a recording electrode. The electrode filled with intracellular fluid was inserted into a microelectrode holder, and a microelectrode manipulator was operated under an inverted microscope to immerse the electrode in extracellular fluid and an electrode resistance (Rpip) was recorded. The electrode was brought into contact with the cell surface and a negative pressure suction was applied to form a high resistance seal (GΩ). At this point, a fast capacitance compensation was performed, and negative pressure was continued to apply in order to break the cell membrane, so that a whole cell recording mode was formed. Then, a slow capacitance compensation was performed and experimental parameters such as film capacitance (Cm) and series resistance (Rs) were recorded. No leakage compensation was provided.
When the TRPV3 current recorded by the whole cell had stabilized, administration was started. Each pharmaceutical concentration acted for 5 minutes (or until the current stabilized) before detecting the next concentration. A plurality of concentrations was tested for each test compound. A cover glass covered with cells was placed in a recording bath under an inverted microscope. A blank control extracellular solution and a working fluid for the compound to be tested sequentially flowed through the recording bath from low concentration to high concentration using gravity perfusion to act on the cells. Liquid exchange was performed using a peristaltic pump during recording. The current detected by each cell in the extracellular fluid without the compound served as its own control group. Each concentration was independently tested twice using at least two cells. All electrophysiological tests were conducted at room temperature.

hTRPV4 = hTRPV4 (Homo sapiens, UniProt Q9HBA0); assay: Patch clamp method, hTRPV4; format: cell-based
hTRPV4, sequence (Q9HBA0 whole entry): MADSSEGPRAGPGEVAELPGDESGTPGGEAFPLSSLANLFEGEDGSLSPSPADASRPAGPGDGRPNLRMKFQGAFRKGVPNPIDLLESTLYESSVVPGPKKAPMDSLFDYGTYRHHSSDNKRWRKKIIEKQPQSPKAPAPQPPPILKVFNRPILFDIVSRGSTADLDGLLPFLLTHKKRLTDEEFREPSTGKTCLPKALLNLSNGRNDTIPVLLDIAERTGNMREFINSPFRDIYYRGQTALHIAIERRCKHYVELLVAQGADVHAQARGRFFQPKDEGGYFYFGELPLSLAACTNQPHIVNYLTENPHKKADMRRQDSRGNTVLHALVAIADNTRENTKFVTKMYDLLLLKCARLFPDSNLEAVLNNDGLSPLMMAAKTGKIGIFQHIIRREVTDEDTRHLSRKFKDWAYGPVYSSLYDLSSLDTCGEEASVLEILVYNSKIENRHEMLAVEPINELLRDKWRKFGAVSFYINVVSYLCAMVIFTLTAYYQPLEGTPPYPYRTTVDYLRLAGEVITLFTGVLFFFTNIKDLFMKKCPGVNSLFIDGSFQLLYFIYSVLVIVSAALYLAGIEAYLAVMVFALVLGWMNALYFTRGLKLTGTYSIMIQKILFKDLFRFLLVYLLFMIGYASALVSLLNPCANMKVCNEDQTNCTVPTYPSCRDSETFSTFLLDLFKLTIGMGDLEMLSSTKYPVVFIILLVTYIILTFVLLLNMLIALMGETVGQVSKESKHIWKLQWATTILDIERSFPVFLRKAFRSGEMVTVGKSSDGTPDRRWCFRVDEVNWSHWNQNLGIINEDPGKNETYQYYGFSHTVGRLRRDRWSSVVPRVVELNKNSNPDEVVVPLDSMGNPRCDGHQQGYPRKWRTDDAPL

hTRPV1 = hTRPV1 (Homo sapiens, UniProt Q8NER1); assay: Patch clamp method, hTRPV1; format: cell-based
hTRPV1, sequence (Q8NER1 whole entry): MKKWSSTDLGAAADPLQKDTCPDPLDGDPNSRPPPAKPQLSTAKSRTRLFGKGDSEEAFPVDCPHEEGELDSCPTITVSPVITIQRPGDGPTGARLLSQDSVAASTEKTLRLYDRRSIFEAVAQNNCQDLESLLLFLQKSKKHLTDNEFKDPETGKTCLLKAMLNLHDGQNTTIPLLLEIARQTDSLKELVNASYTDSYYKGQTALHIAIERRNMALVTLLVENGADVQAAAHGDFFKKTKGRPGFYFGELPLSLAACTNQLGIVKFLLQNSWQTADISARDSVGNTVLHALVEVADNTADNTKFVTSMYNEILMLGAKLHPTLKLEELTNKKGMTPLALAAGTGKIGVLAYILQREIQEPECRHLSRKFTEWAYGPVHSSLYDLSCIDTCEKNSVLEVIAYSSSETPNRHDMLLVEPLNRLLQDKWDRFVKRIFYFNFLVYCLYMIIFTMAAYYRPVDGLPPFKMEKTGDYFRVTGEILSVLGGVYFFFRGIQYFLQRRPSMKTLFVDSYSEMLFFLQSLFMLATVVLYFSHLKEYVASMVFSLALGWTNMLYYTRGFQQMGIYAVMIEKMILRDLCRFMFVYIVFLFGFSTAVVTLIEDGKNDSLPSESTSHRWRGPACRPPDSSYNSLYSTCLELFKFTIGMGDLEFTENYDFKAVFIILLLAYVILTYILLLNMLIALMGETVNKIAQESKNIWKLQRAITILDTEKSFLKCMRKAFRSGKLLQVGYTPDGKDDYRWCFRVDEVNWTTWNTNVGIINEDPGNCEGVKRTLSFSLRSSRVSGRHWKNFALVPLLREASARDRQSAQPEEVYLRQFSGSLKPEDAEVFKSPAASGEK

hTRPA1 = hTRPA1 (Homo sapiens, UniProt O75762); assay: Patch clamp method, hTRPA1; format: cell-based
hTRPA1, sequence (O75762 whole entry): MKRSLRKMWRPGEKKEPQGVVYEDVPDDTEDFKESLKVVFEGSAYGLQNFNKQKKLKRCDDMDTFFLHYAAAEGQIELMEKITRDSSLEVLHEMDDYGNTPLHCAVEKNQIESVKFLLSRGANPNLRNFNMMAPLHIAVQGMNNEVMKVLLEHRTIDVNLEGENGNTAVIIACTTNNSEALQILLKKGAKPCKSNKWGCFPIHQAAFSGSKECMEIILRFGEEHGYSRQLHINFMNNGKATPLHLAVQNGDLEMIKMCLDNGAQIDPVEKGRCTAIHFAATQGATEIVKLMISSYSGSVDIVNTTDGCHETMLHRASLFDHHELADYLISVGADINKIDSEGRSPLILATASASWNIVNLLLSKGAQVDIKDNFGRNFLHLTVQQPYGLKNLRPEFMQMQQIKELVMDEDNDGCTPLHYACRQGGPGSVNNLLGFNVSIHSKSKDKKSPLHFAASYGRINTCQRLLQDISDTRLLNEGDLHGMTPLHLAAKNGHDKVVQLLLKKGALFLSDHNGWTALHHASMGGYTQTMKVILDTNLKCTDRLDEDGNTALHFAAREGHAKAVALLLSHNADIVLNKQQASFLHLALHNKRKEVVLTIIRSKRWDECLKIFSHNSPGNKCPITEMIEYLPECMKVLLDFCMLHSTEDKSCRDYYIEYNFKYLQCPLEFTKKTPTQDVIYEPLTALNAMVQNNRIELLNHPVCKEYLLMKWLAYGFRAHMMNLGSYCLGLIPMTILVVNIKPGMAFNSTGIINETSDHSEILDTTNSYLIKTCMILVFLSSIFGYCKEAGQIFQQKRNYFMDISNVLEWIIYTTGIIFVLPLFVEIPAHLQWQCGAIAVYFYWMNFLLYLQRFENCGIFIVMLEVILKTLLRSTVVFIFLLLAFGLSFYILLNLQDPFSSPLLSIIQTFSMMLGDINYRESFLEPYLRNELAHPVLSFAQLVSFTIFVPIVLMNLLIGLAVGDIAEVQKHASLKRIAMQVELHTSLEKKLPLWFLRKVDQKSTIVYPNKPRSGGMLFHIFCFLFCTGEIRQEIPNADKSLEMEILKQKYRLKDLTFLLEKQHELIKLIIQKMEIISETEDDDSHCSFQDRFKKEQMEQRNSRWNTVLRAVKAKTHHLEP

CC(C)c1ccccc1-c1ccc(N2CC[C@H](Sc3ccc(Cl)cn3)C2)c(CO)c1 [Example 1, ((S)-(4-(3-(5-chloropyridin-2-yl)thio)pyrrolidin-1-yl)-2′-isopropyl-[1,1′-biphenyl]-3-yl) methanol]
in vitro Clint [1]: 112.14 microliters/minute/milligrams
half-life at 1 μM ([1]; read-out: in vitro T1/2): 12.4 min
in vitro Clint [2]: 135.00 microliters/minute/milligrams
half-life at 1 μM ([2]; read-out: in vitro T1/2): 10.3 min
inhibition at 0.3 µM (hTRPV3): 71.6%

CC(C)c1ccccc1-c1ccc(N2CC[C@H](S(=O)(=O)c3ccc(Cl)cn3)C2)c(CO)c1 [Example 2, ((S)-(4-(3-(5-chloropyridin-2-yl)sulfonyl)pyrrolidin-1-yl)-2′-isopropyl-[1,1′-biphenyl]-3-yl) methanol]
inhibition at 0.3 µM (hTRPV3): 18.6%

CC(C)c1ccccc1-c1ccc(N2CC[C@H]([S+]([O-])c3ccc(Cl)cn3)C2)c(CO)c1 (stereo partly shown) [Example 3]
inhibition at 0.3 µM (hTRPV3): 9.96%

OCc1cc(-c2ccccc2C2CC2)ccc1N1CC[C@H](Sc2ccc(Cl)cn2)C1 [Example 4, ((S)-(4-(3-(5-chloropyridin-2-yl)thio)pyrrolidin-1-yl)-2′-cyclopropyl-[1,1′-biphenyl]-3-yl) methanol]
inhibition at 0.3 µM (hTRPV4; 0.3 μM, patch clamp method, read-out: Inhibition rate (%) on hTRPV4): 36.2%
Selectivity ratio (hTRPV4) (hTRPV4; ratio of inhibition rate on TRPV3 to inhibition rate on hTRPV4, 0.3 μM): 2x
inhibition at 0.3 µM (hTRPV1; 0.3 μM, patch clamp method, read-out: Inhibition rate (%) on hTRPV1): 0.48%
Selectivity ratio (hTRPV1) (hTRPV1; ratio of inhibition rate on TRPV3 to inhibition rate on hTRPV1, 0.3 μM): 152x
inhibition at 0.3 µM (hTRPV3): 72.8%
Selectivity ratio (hTRPV3) (hTRPV3; ratio of inhibition rate on TRPV3 to inhibition rate on this channel, 0.3 μM): 1x
inhibition at 0.3 µM (hTRPA1; 0.3 μM, patch clamp method, read-out: Inhibition rate (%) on hTRPA1): 2.44%
Selectivity ratio (hTRPA1) (hTRPA1; ratio of inhibition rate on TRPV3 to inhibition rate on hTRPA1, 0.3 μM): 30x

O=S(=O)(c1ccc(Cl)cn1)[C@H]1CCN(c2ccc(-c3ccccc3C3CC3)cc2CO)C1 [Example 5, (S)-(4-(3-((5-chloropyridin-2-yl)sulfonyl)pyrrolidin-1-yl)-2′-cyclopropyl-[1,1′-biphenyl]-3-yl) methanol]
inhibition at 0.3 µM (hTRPV3): 23.1%

[O-][S+](c1ccc(Cl)cn1)[C@H]1CCN(c2ccc(-c3ccccc3C3CC3)cc2CO)C1 (stereo partly shown) [Example 6]
inhibition at 0.3 µM (hTRPV3): 4.73%

CC(C)c1ccccc1-c1ccc(N2CC[C@H](Sc3ccc(C(F)(F)F)cn3)C2)c(CO)c1 [Example 7, ((S)-(2′-isopropyl-4-(3-(5-(trifluoromethyl)pyridin-2-yl)thio)pyrrolidin-1-yl)-[1,1′-biphenyl]-3-yl) methanol]
inhibition at 0.3 µM (hTRPV3): 38%

OCc1cc(-c2ccccc2C2CC2)ccc1N1CC[C@H](Sc2ccc(F)cn2)C1 [Example 10, ((S)-(4-(3-(5-fluoropyridin-2-yl)thio)pyrrolidin-1-yl)-2′-cyclopropyl-[1,1′-biphenyl]-3-yl) methanol]
inhibition at 0.3 µM (hTRPV3): 97.8%

— patent US20260176258A1, “A THIOETHER COMPOUND HAVING SOFT DRUG PROPERTIES, A PHARMACEUTICAL COMPOSITION AND USE THEREOF” (Prime Gene Therapeutics Co., Ltd., priority 2022, published 2026)
